For this experiment, the system named is Malassezia furfur. The experiment can be described thus: Zone of inhibition, disc diffusion method. In kind it is cell-based. To be noted: antimicrobial active alone, 37° C., 48 hrs; for zone of inhibition at […] strength / zone of inhibition at 0.5 % strength / zone of inhibition at 1 % strength / zone of inhibition at 2 % strength: Malassezia furfur; for zone of inhibition at […] strength: 0.25 % w/w. On the procedure:
The antimicrobial efficacy was determined by measuring zone of inhibition using disc diffusion method against E. Coli, Malassezia furfur, Pseudomonas, Aspergillus niger, Staphylococcus and Candida. […] The culture plates were incubated at 37° C. for 48 hrs and anti-microbial activity was evaluated by observing an area of no growth around the disc. An area of no growth around the swatch is known as a zone of inhibition.
(In agar diffusion tests the substance spreads into inoculated agar from a disc or well.)

For orientation: zone of inhibition means the size of the clear area around the sample on an inoculated plate. `Cc1cc(C2CCCCC2)n(O)c(=O)c1` [Ciclopirox Olamine] came in with a zone of inhibition at […] strength of 18 mm. The compound further yielded a zone of inhibition at 0.5 % strength (0.5 % w/w) of 18 mm. The compound also yielded a zone of inhibition at 1 % strength (1 % w/w) of 20 mm. Also, the zone of inhibition at 2 % strength (2 % w/w) is 22 mm.
In turn, `CC(C)(C)C(=O)C(Oc1ccc(Cl)cc1)n1ccnc1` (stereo not drawn) [Climbazole] had a zone of inhibition at […] strength of 20 mm. The zone of inhibition at 0.5 % strength (0.5 % w/w) came to 40 mm. The same compound showed a zone of inhibition at 1 % strength (1 % w/w) of 40 mm. The compound further gave a zone of inhibition at 2 % strength (2 % w/w) of 42 mm.
In turn, `CC(=O)N1CCN(c2ccc(OCC3COC(Cn4ccnc4)(c4ccc(Cl)cc4Cl)O3)cc2)CC1` (stereo not drawn) [Ketoconazole] came in with a zone of inhibition at […] strength of 40 mm. For the setting “0.5 % w/w”, this compound gave a zone of inhibition at 0.5 % strength of 40 mm. For the same compound, the zone of inhibition at 1 % strength (1 % w/w) was 40 mm. For the same compound, the zone of inhibition at 2 % strength (2 % w/w) worked out at 40 mm.
On to `Cc1cc(CC(C)CC(C)(C)C)n(O)c(=O)c1.NCCO` (stereo not drawn) [Octopirox], for which the Zone of inhibition was 14 mm (0.5 % w/w), 18 mm (1 % w/w), 20 mm (2 % w/w) and 10 mm ([…] w/w).
Regarding `O=C(O)c1ccccc1O` [Salicylic Acid], where the note is “1 % w/w”, the zone of inhibition at 1 % strength was 4 mm. Further, under “2 % w/w”, the zone of inhibition at 2 % strength came out at 6 mm.

The values above are taken from US20190350200A1, “SYNERGISTIC ANTIMICROBIAL COMPOSITIONS” (JUBILANT LIFE SCIENCES LIMITED, priority 2016, published 2019).
